From article PMC10281575, “PfCRT mutations conferring piperaquine resistance in falciparum malaria shape the kinetics of quinoline drug binding and transport” (PLOS Pathogens, 2023)
Several values for one entry are separate records, joined by “and”; a condition that tells them apart may be missing. Equal values may be shown once.

Target: T1, PfCRT^Dd2_F145I (Plasmodium falciparum, UniProt Q8IBZ9, A220S/F145I/I356T/K76T/M74I/N326S/N75E/Q271E/R371I)
T1 construct: expressed in transfected cells; host or cells: Xenopus laevis oocytes injected with in vitro transcribed RNA (pSP64T)
T1 sequence (Q8IBZ9 1-424 M74I/N75E/K76T/F145I/A220S/Q271E/N326S/I356T/R371I): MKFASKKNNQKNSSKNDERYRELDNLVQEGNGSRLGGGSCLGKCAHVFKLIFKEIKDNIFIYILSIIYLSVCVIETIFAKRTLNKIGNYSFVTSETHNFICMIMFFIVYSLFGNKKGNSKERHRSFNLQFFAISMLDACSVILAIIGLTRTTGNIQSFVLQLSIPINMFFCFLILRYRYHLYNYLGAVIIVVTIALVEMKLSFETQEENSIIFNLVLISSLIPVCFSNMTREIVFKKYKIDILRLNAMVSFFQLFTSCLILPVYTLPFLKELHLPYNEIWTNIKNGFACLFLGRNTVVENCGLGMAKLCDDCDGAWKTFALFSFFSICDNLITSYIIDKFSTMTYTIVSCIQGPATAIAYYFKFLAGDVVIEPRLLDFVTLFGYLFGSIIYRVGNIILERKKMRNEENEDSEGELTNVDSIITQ
Assay: Competition kinetics of drug transport (radiolabeled substrate plus cold inhibitor), PfCRT^Dd2_F145I-expressing oocytes
Assay type: cell-based
Method: To further characterize the kinetic relationship between CQ and PPQ, we performed a series of competition reactions. To this end, water-injected oocytes and PfCRT-expressing oocytes were incubated in medium containing one of seven concentrations of radio-labeled CQ and one of six concentrations of cold PPQ for 60 min before the amount of radio-labeled CQ uptake was determined. The rate of PfCRT-mediated CQ uptake was calculated for each condition by subtracting the corresponding value obtained for water-injected oocytes from those of PfCRT-expressing oocytes. The results were analyzed as a function of the CQ concentration (Fig 4A) and 16 different models of substrate competition were globally fit to the data by the least-squares method, using Python. The models were ranked, according to their Akaike information criterion difference (ΔAICC) and their Akaike weight (Fig 4B), with the most plausible model being the one with the lowest AICC (ΔAICC = 0) and the highest Akaike weight.
A complementary set of experiments was undertaken to investigate the kinetic mechanism by which PfCRT^Dd2_F145I accepts CQ and PPQ (Fig 6). […] These included a global fit of the substrate competition data to the 16 kinetic models (Fig 6), analysis of the secondary plots (Vmax,app and Vmax,app/KM,app as a function of the inhibitor concentration) (Fig 7A), a fractional velocity plot analysis (Fig 7B) and a comparison of the experimental data with the modelled data using the noncompetitive inhibition equation (Fig 7C to 7F). […] The fractional velocity plot illustrated the partial character of the noncompetitive inhibition mechanism by yielding a partiality factor β^CQ = 0.31 ± 0.04, by which PPQ reduces the transport velocity of CQ (Fig 7B). […] A 3D model of the kinetics between PfCRT^Dd2_F145I, CQ and PPQ, and analyses of the residuals as a function of substrate and inhibitor concentrations confirmed that the model was also an appropriate explanation for the mutant transporter (Fig 7C to 7F).
Drug transport assays were performed as previously described. Briefly, measurements of radiolabeled drug uptake were made over 1 h, unless otherwise specified. […] Where specified, one or more unlabeled drugs were also present at the indicated concentrations. The direction of drug transport in the assays is from the extracellular medium (pH 6) into the oocyte cytosol (pH 7.2), which corresponds to the efflux of CQ or PPQ from the acidic digestive vacuole (pH 5.2) into the parasite cytosol (pH 7.2). The uptake assays were terminated by removing the oocytes from the reaction medium and washing them three times with 2 mL of ice-cold ND96 buffer. Each oocyte was transferred to a separate scintillation vial and lysed by the addition of 200 μL of a 5% SDS solution. The radioactivity in the sample was measured using a liquid scintillation analyser Tri-Carb 4910 TR (PerkinElmer). Water-injected oocytes were analyzed in parallel as a negative control. The buffer from each condition was measured in duplicate in parallel to each experiment to transform counts per minute into pmol of drug. Drug uptake attributable to PfCRT was determined by subtracting the background uptake from water-injected oocytes from that of PfCRT-expressing oocytes. In all cases, at least three independent experiments were performed on oocytes from different frogs, and for each condition in an experiment, measurements were made from 10 oocytes per treatment.
The following equations were adopted from Segel (1993), and the reader is referred to that text for the assumptions made in the author’s approach in the derivation of each equation [31]. The concentration of substrate is denoted as [S1] and the concentration of the inhibiting substrate is denoted as [S2]. KS1 and KS2 are the dissociation constants for the respective substrate-protein complexes.
Analyses of the kinetic data were performed using SigmaPlot version 13.0 and Python. […]

SMILES: Clc1ccc2c(N3CCN(CCCN4CCN(c5ccnc6cc(Cl)ccc56)CC4)CC3)ccnc2c1 [PPQ, piperaquine]
- PfCRTDd2_F145I-mediated PPQ transport (10 µM PPQ, 0 µM CQ): 11.21 pmol oocyte-1 h-1 and 11.88 pmol oocyte-1 h-1 and 9.04 pmol oocyte-1 h-1
- PfCRTDd2_F145I-mediated PPQ transport (10 µM PPQ, 50 µM CQ): 9.4 pmol oocyte-1 h-1 and 8.02 pmol oocyte-1 h-1 and 11.57 pmol oocyte-1 h-1
- PfCRTDd2_F145I-mediated PPQ transport (10 µM PPQ, 125 µM CQ): 7.93 pmol oocyte-1 h-1 and 10.99 pmol oocyte-1 h-1 and 8.58 pmol oocyte-1 h-1
- PfCRTDd2_F145I-mediated PPQ transport (10 µM PPQ, 200 µM CQ): 8.51 pmol oocyte-1 h-1 and 7.12 pmol oocyte-1 h-1 and 10.43 pmol oocyte-1 h-1
- PfCRTDd2_F145I-mediated PPQ transport (10 µM PPQ, 400 µM CQ): 7.41 pmol oocyte-1 h-1 and 6.45 pmol oocyte-1 h-1
- PfCRTDd2_F145I-mediated PPQ transport (50 µM PPQ, 25 µM CQ): 33.88 pmol oocyte-1 h-1 and 40.73 pmol oocyte-1 h-1 and 51.89 pmol oocyte-1 h-1
- PfCRTDd2_F145I-mediated PPQ transport (50 µM PPQ, 50 µM CQ): 40.89 pmol oocyte-1 h-1 and 44.12 pmol oocyte-1 h-1 and 39.8 pmol oocyte-1 h-1
- PfCRTDd2_F145I-mediated PPQ transport (50 µM PPQ, 125 µM CQ): 36.42 pmol oocyte-1 h-1 and 31.75 pmol oocyte-1 h-1 and 38.13 pmol oocyte-1 h-1
- PfCRTDd2_F145I-mediated PPQ transport (50 µM PPQ, 400 µM CQ): 17.03 pmol oocyte-1 h-1 and 21.16 pmol oocyte-1 h-1
- PfCRTDd2_F145I-mediated PPQ transport (100 µM PPQ, 0 µM CQ): 60.49 pmol oocyte-1 h-1 and 74.22 pmol oocyte-1 h-1 and 56.91 pmol oocyte-1 h-1
- PfCRTDd2_F145I-mediated PPQ transport (100 µM PPQ, 25 µM CQ): 59.02 pmol oocyte-1 h-1 and 57.16 pmol oocyte-1 h-1 and 56.63 pmol oocyte-1 h-1
- PfCRTDd2_F145I-mediated PPQ transport (100 µM PPQ, 50 µM CQ): 63 pmol oocyte-1 h-1 and 53.26 pmol oocyte-1 h-1 and 51.28 pmol oocyte-1 h-1
- PfCRTDd2_F145I-mediated PPQ transport (100 µM PPQ, 125 µM CQ): 52.64 pmol oocyte-1 h-1 and 47.96 pmol oocyte-1 h-1 and 53 pmol oocyte-1 h-1
- PfCRTDd2_F145I-mediated PPQ transport (100 µM PPQ, 200 µM CQ): 45.31 pmol oocyte-1 h-1 and 44.84 pmol oocyte-1 h-1 and 60.71 pmol oocyte-1 h-1
- PfCRTDd2_F145I-mediated PPQ transport (100 µM PPQ, 400 µM CQ): 44.06 pmol oocyte-1 h-1 and 56.54 pmol oocyte-1 h-1
- PfCRTDd2_F145I-mediated PPQ transport (200 µM PPQ, 25 µM CQ): 102.24 pmol oocyte-1 h-1 and 78.79 pmol oocyte-1 h-1 and 91.29 pmol oocyte-1 h-1
- PfCRTDd2_F145I-mediated PPQ transport (200 µM PPQ, 50 µM CQ): 94.74 pmol oocyte-1 h-1 and 73.08 pmol oocyte-1 h-1 and 99.27 pmol oocyte-1 h-1
- PfCRTDd2_F145I-mediated PPQ transport (200 µM PPQ, 125 µM CQ): 78.46 pmol oocyte-1 h-1 and 108.53 pmol oocyte-1 h-1 and 73.37 pmol oocyte-1 h-1
- PfCRTDd2_F145I-mediated PPQ transport (200 µM PPQ, 400 µM CQ): 85.32 pmol oocyte-1 h-1 and 58.78 pmol oocyte-1 h-1
- PfCRTDd2_F145I-mediated PPQ transport (300 µM PPQ, 0 µM CQ): 115.45 pmol oocyte-1 h-1 and 117.23 pmol oocyte-1 h-1
- PfCRTDd2_F145I-mediated PPQ transport (300 µM PPQ, 25 µM CQ): 115.11 pmol oocyte-1 h-1 and 88.35 pmol oocyte-1 h-1 and 102.98 pmol oocyte-1 h-1
- PfCRTDd2_F145I-mediated PPQ transport (300 µM PPQ, 50 µM CQ): 85.96 pmol oocyte-1 h-1 and 103.73 pmol oocyte-1 h-1 and 93.02 pmol oocyte-1 h-1
- PfCRTDd2_F145I-mediated PPQ transport (300 µM PPQ, 125 µM CQ): 84.14 pmol oocyte-1 h-1 and 103.07 pmol oocyte-1 h-1 and 81.24 pmol oocyte-1 h-1
- PfCRTDd2_F145I-mediated PPQ transport (300 µM PPQ, 200 µM CQ): 75.68 pmol oocyte-1 h-1 and 80.62 pmol oocyte-1 h-1 and 99.18 pmol oocyte-1 h-1
- PfCRTDd2_F145I-mediated PPQ transport (300 µM PPQ, 400 µM CQ): 77.19 pmol oocyte-1 h-1 and 102 pmol oocyte-1 h-1
- PfCRTDd2_F145I-mediated PPQ transport (400 µM PPQ, 0 µM CQ): 130.32 pmol oocyte-1 h-1 and 101.99 pmol oocyte-1 h-1
- PfCRTDd2_F145I-mediated PPQ transport (400 µM PPQ, 25 µM CQ): 115.19 pmol oocyte-1 h-1 and 112.21 pmol oocyte-1 h-1 and 107.93 pmol oocyte-1 h-1
- PfCRTDd2_F145I-mediated PPQ transport (400 µM PPQ, 50 µM CQ): 86.8 pmol oocyte-1 h-1 and 110.06 pmol oocyte-1 h-1 and 116.13 pmol oocyte-1 h-1
- PfCRTDd2_F145I-mediated PPQ transport (400 µM PPQ, 125 µM CQ): 93.73 pmol oocyte-1 h-1 and 100.31 pmol oocyte-1 h-1 and 96.89 pmol oocyte-1 h-1
- PfCRTDd2_F145I-mediated PPQ transport (400 µM PPQ, 200 µM CQ): 75.94 pmol oocyte-1 h-1 and 96.5 pmol oocyte-1 h-1 and 106.38 pmol oocyte-1 h-1
- PfCRTDd2_F145I-mediated PPQ transport (400 µM PPQ, 400 µM CQ): 105.94 pmol oocyte-1 h-1 and 73.74 pmol oocyte-1 h-1
- PfCRTDd2_F145I-mediated PPQ transport (500 µM PPQ, 0 µM CQ): 124.15 pmol oocyte-1 h-1 and 149.83 pmol oocyte-1 h-1
- PfCRTDd2_F145I-mediated PPQ transport (500 µM PPQ, 25 µM CQ): 134.09 pmol oocyte-1 h-1 and 105.12 pmol oocyte-1 h-1 and 107.54 pmol oocyte-1 h-1
- PfCRTDd2_F145I-mediated PPQ transport (500 µM PPQ, 50 µM CQ): 102.67 pmol oocyte-1 h-1 and 147.39 pmol oocyte-1 h-1 and 78.85 pmol oocyte-1 h-1
- PfCRTDd2_F145I-mediated PPQ transport (500 µM PPQ, 125 µM CQ): 105.59 pmol oocyte-1 h-1 and 76.21 pmol oocyte-1 h-1 and 122.33 pmol oocyte-1 h-1
- PfCRTDd2_F145I-mediated PPQ transport (500 µM PPQ, 200 µM CQ): 62.06 pmol oocyte-1 h-1 and 101.24 pmol oocyte-1 h-1
